Reference: article PMC4359082 (Nature, 2014)

Tests used:
[1] = system: mouse peritoneal mast cells; experiment: Mouse peritoneal mast cell histamine release assay; type: cell-based; details: 5 minutes, room temperature; HTRF histamine assay
MrgprB2 = molecular target: T1, MrgprB2 (Mus musculus, UniProt Q3KNA1); experiment: Calcium imaging in HEK293 cells expressing MrgprB2; type: cell-based; details: HEK293 cells heterologously expressing MrgprB2
T1 sequence (Q3KNA1 1-338): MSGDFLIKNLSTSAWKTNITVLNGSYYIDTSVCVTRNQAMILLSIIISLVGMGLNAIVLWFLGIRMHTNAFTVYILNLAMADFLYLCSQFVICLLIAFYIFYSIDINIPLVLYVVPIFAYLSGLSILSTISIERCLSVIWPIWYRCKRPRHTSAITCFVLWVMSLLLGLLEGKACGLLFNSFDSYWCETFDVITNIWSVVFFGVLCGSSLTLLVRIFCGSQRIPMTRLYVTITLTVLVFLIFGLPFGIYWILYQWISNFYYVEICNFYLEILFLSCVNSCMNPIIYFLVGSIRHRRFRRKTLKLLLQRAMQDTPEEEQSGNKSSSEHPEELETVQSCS

[2] = Drug preparation and storage: stability of solutions; type: physicochemical; details: solutions prepared on the day of the experiment

response of MrgprB2-HEK cells ([Ca2+]i) (MrgprB2) | Compound | histamine release from WT peritoneal mast cells (MrgprB2MUT mast cells released substantially less) [1] | stability of potency of drug solutions [2]
– | O=C(O)c1cn(C2CC2)c2cc(N3CCNCC3)c(F)cc2c1=O [Ciprofloxacin, ciprofloxacin] | induced histamine release | –
no response | CCN(CC)CCCC(C)Nc1ccnc2cc(Cl)ccc12 (stereo not shown) [CQ, chloroquine] | – | –
– | COc1ccc(CC2c3cc(OC)c(OC)cc3CC[N+]2(C)CCC(=O)OCCCCCOC(=O)CC[N+]2(C)CCc3cc(OC)c(OC)cc3C2Cc2ccc(OC)c(OC)c2)cc1OC (stereo not shown) [Atracurium, atracurium] | induced histamine release | susceptible to oxidation and/or freeze-thaw effects
– | COc1cc2c(cc1OC)[C@@H](Cc1cc(OC)c(OC)c(OC)c1)[N+](C)(CCCOC(=O)CC/C=C/CCC(=O)OCCC[N+]1(C)CCc3cc(OC)c(OC)cc3[C@H]1Cc1cc(OC)c(OC)c(OC)c1)CC2 (stereo partly shown) [mivacurium] | – | susceptible to oxidation and/or freeze-thaw effects
– | icatibant | induced histamine release | –
– | COc1cc2c3cc1Oc1cc(ccc1O)C[C@@H]1c4c(cc(OC)c(O)c4Oc4ccc(cc4)C[C@@H]3N(C)CC2)CC[N+]1(C)C [tubocurarine] | – | susceptible to oxidation and/or freeze-thaw effects
